Laboratory results from patent publication EP2385948B1, “FUSED THIAZOLO AND OXAZOLO PYRIMIDINONES” (Torrent Pharmaceuticals Limited, priority 2009, dated 2011).
Counter-ions that a name gives are not always drawn.

How the values were obtained:
adrenomedullin mRNA = assay: In vitro induction of adrenomedullin mRNA (real-time PCR, normalized to 18S rRNA); format: cell-based; conditions: Hep3B cell line, relative to vehicle control; for fold induction at 200 µM: Homo sapiens, Hep3B, 6 h
Description: Hep3B cell line (ATCC HB8064) was employed. […] At the end of 6 hours, cells were lysed and total RNA was isolated. Expression of adrenomedullin mRNA along-with expression of 18S rRNA was monitored by real-time PCR. Adrenomedullin mRNA expression was normalized relative to the expression of 18S rRNA. The results were expressed as fold induction of adrenomedullin mRNA relative to vehicle treated control.

VEGF = assay: In vitro induction of VEGF (ELISA of cell culture supernatant); format: cell-based; conditions: Homo sapiens, Hep3B cell line, 16 hours, relative to vehicle control
Description: Hep3B cell line (ATCC HB8064) was employed. […] Supernatant obtained was analyzed for VEGF by ELISA (R&D systems, USA). […]

[1] = tested on: renal ischemia and reperfusion induced acute kidney injury model in rats; assay: Renal ischemia and reperfusion induced acute kidney injury model; format: in vivo; conditions: 24hrs post initiation of ischemia, from control group
Description: The efficacy of test compound to improve renal function was evaluated in a renal ischemia and reperfusion induced acute kidney injury model in rats. The beneficial effect of the compound was evaluated using two different treatment protocols. In one protocol treatment with test compound was given before onset of ischemia (pre-treatment) and the other protocol involed treatment with test compound initiated after the onset of ischemia (post-treatment).
Pre-ischemia intervention protocol: Rats were randomised into two groups, compound treated and vehicle control. Before initiation of bilateral renal ischemia, the animals in compound treatment group received multiple doses of compound no. 10 (i.e. pre treated) and control group received vehicle by i.p route.
Post-ischemia intervention protocol: Rats were randomised into two groups, compound treated and vehicle control. After intiation of bilateral renal ischemia, the animals in compound treatment group received multiple doses of compound no. 10 (i.e. post treated) and control group received vehicle in similar fashion by i.p route.
Induction of Renal ischemia and reperfusion in rats: All animals were anesthetized with pentobarbital sodium (50 mg/kg body wt). Homeothermic blanket was used to maintain a constant body temperature of 37°C during surgery and ischemia. A midline incision was made at the ventral side to access the kidneys and both renal pedicle were isolated and occluded for 35 mins using microclips, which was verified by the change of the renal color. After an ischemic period of 35 min, the microclips were removed and reperfusion initiated. The abdomen was closed and skin & muscles sutured and animal allowed to recover. Blood sample of 300 µl was taken via sublingual vein puncture at various predetermined time points.
In both protocols tested i.e pre-ischemia intervention and post-ischemia intervention, renal function improvement was assessed by measuring serum creatinine and BUN (blood urea nitrogen) at various time points post ischemia. Results are expressed below as % reduction from their control group at 24hrs post initiation of ischemia.

[2] = tested on: 5/6 nephrectomized (5/6 NX) rats; assay: Anemia associated with chronic kidney disease, 5/6 nephrectomized rat model; format: in vivo; conditions: for fold increase in reticulocyte production index: compared to control group
Description: The efficacy of the test compound to correct anemia associated with CKD was studied in an animal model of anemia - 5/6 nephrectomized (5/6 NX) rats^15,16,17. Animals were randomized based upon anemia and kidney dysfunction parameters and divided into two groups. One group received compound-10 (20mg/kg; b.i.d. i.p) for seven days while the control received respective vehicle. Blood sampling was done on day 3 and 7 post initiation of drug administration to check early markers of anemia correction.

erythropoietin = assay: In vitro erythropoietin induction (ELISA of cell culture supernatant); conditions: Homo sapiens, Hep3B, 16 h; for fold induction at 200 µM: read-out: EPO fold induction, Hep3B cell line, 200 uM, 16 hours, relative to vehicle control
Description: Hep3B cell line (ATCC HB8064) was employed. Induction of erythropoietin was carried out for the indicated dose of compounds for 16 hours duration. At the end of 16 hours, cell culture medium was collected and centrifuged to remove any debris. Supernatant obtained was analyzed for erythropoietin by ELISA (R&D systems, USA). The results were expressed as fold induction as compared to vehicle control.

[3] = Post-ischemia intervention, i.p. 0.3mg/kg as 1st dose & 0.1mg/kg as subsequent dose
[4] = Pre-ischemia intervention, i.p. 10 mg/kg multiple dose
[5] = day 7 of treatment, 5/6 NX rats, 20mg/kg b.i.d. i.p, compared to control

`O=C(O)CNC(=O)c1c(O)nc2sc3c(n2c1=O)CCCCC3` [Compound 10, [(2-Hydroxy-4-oxo-6,7,8,9-tetrahydro-4H,5H-10-thia-1,4a-diaza-benzo[a]azulene-3-carbonyl)-amino] -acetic acid] was tested, and the fold induction at 200 µM (adrenomedullin mRNA) was over 8, the fold induction at 200 µM (VEGF) was 2 to 4 and the “% reduction BUN” value [1, 3] was 17.0%. For the same compound, the “% reduction Ser.Creatinine” value [1, 3] was 31.0%, the “% reduction BUN” value [1, 4] was 18.0% and the “% reduction Ser.Creatinine” value [1, 4] was 33.0%. For the same compound, the “circulating EPO levels” value ([2]; 5/6 NX rats, 20mg/kg b.i.d. i.p for seven days, vehicle control undetectable (<45 pg/ml)) was 115 to 3900 pg/mL, the “fold increase in reticulocyte production index” value ([2]; day 3, 5/6 NX rats, 20mg/kg b.i.d. i.p) was 3 fold and the “fold increase in reticulocyte production index” value ([2]; day 7, 5/6 NX rats, 20mg/kg b.i.d. i.p) was 5.6 fold. The “increase in erythrocyte count” value [2, 5] was 24%, the “increase in hematocrit percent” value [2, 5] was 25% and the “increase in hemoglobin content” value [2, 5] was 30%. It also gave a fold induction at 200 µM (erythropoietin) of over 16.
`O=C(O)CNC(=O)c1c(O)nc2sc3c(n2c1=O)CCN(Cc1ccc(C(F)(F)F)cc1)C3` [Compound 52, {[2-Hydroxy-4-oxo-7-(4-trifluoromethyl-benzyl)-5,6,7,8-tetrahydro-4H-9-thia-1,4a,7-triaza-fluorene-3-carbonyl]-amino}-acetic acid] showed a fold induction at 200 µM (adrenomedullin mRNA) of 5 to 8 and a fold induction at 200 µM (erythropoietin) of 5 to 8.
Work on `CC(NC(=O)c1c(O)nc2sc3c(n2c1=O)CCCCC3)C(=O)O` (stereo not drawn) [Compound 32, 2-[(2-Hydroxy-4-oxo-6,7,8,9-tetrahydro-4H,5H-10-thia-1,4a-diaza-benzo[a]azulene-3-carbonyl)-amino]-propionic acid] yielded a fold induction at 200 µM (adrenomedullin mRNA) of 2 to 4, a fold induction at 200 µM (VEGF) of 2 to 4 and a fold induction at 200 µM (erythropoietin) of 9 to 16.
`O=C(O)CNC(=O)c1c(O)nc2sc3c(n2c1=O)CCN(Cc1ccc(Cl)cc1)C3` [Compound 23, {[7-(4-Chloro-benzyl)-2-hydroxy-4-oxo-5,6,7,8-tetrahydro-4H-9-thia-1,4a,7-triaza-fluorene-3-carbonyl]-amino}-acetic acid] was tested, and the fold induction at 200 µM (adrenomedullin mRNA) was 2 to 4, the fold induction at 200 µM (VEGF) was 2 to 4 and the fold induction at 200 µM (erythropoietin) was 9 to 16.
In the case of `O=C(O)CNC(=O)c1c(O)nc2sc3c(n2c1=O)CCCCC3` [Compound 82, [(2-Hydroxy-4-oxo-6,7,8,9-tetrahydro-4H,5H-10-thia-1,4a-diaza-benzo[a]azulene-3-carbonyl)-amino]-acetic acid, Disodium salt], the “Adrenomedullin mRNA (fold induction)” value (adrenomedullin mRNA; 200 uM, 6 hours, Disodium salt, 360 min) is reported as “+++ (+++ indicates 5-8 fold)” and the fold induction at 50 µM (erythropoietin; read-out: EPO fold induction, Hep3B cell line, 50 uM, 16 hours, relative to vehicle control) is reported as 9 to 16.
With `O=C(O)CNC(=O)c1c(O)nc2sc3c(n2c1=O)CCN(C(=O)CC1CC1)C3` [Compound 27, {[7-(2-Cyclopropyl-acetyl)-2-hydroxy-4-oxo-5,6,7,8-tetrahydro-4H-9-thia-1,4a,7-triaza-fluorene-3-carbonyl]-amino}-acetic acid] the fold induction at 200 µM (adrenomedullin mRNA) was over 8, the fold induction at 200 µM (VEGF) was 2 to 4 and the fold induction at 200 µM (erythropoietin) was 9 to 16.
`O=C(O)CNC(=O)c1c(O)nc2sc3c(n2c1=O)CCN(Cc1ccc(Cl)c(Cl)c1)C3` [Compound 49, {[7-(3,4-Dichloro-benzyl)-2-hydroxy-4-oxo-5,6,7,8-tetrahydro-4H-9-thia-1,4a,7-triaza-fluorene-3-carbonyl]-amino}-acetic acid] gave a fold induction at 200 µM (adrenomedullin mRNA) of 5 to 8 and a fold induction at 200 µM (erythropoietin) of 5 to 8.
`O=C(O)CNC(=O)c1c(O)nc2sc3c(n2c1=O)CCN(c1ccc(Cl)nn1)C3` [Compound 35, {[7-(6-Chloro-pyridazin-3-yl)-2-hydroxy-4-oxo-5,6,7,8-tetrahydro-4H-9-thia-1,4a,7-triaza-fluorene-3-carbonyl]-amino}-acetic acid] showed a fold induction at 200 µM (erythropoietin) of under 2.
In the case of `O=C(NC1(C(=O)O)CCCC1)c1c(O)nc2sc3c(n2c1=O)CCCC3` [Compound 6, 1-[(2-Hydroxy-4-oxo-5,6,7,8-tetrahydro-4H-9-thia-1,4a-diaza-fluorene-3-carbonyl)-amino]-cyclopentanecarboxylic acid], the fold induction at 200 µM (erythropoietin) is reported as under 2.
In the case of `CC1CCc2c(sc3nc(O)c(C(=O)NCC(=O)O)c(=O)n23)C1` (stereo not drawn) [Compound 58, [(2-Hydroxy-7-methyl-4-oxo-5,6,7,8-tetrahydro-4H-9-thia-1,4a-diaza-fluorene-3-carbonyl)-amino]-acetic acid], the fold induction at 200 µM (erythropoietin) is reported as 5 to 8.
With `CC(C)(C)C(=O)N1CCc2c(sc3nc(O)c(C(=O)NCC(=O)O)c(=O)n23)C1` [Compound 20, {[7-(2,2-Dimethyl-propionyl)-2-hydroxy-4-oxo-5,6,7,8-tetrahydro-4H-9-thia-1,4a,7-triaza-fluorene-3-carbonyl]-amino}-acetic acid] the fold induction at 200 µM (erythropoietin) was 5 to 8.
Compound `O=C(O)CNC(=O)c1c(O)nc2sc3c(n2c1=O)CCN(C(=O)Nc1ccccc1)C3` [Compound 8, [(2-Hydroxy-4-oxo-7-phenylcarbamoyl-5,6,7,8-tetrahydro-4H-9-thia-1,4a,7-triaza-fluorene-3-carbonyl)-amino]-acetic acid] has a fold induction at 200 µM (erythropoietin) of 2 to 4.
`CC(NC(=O)c1c(O)nc2sc3c(n2c1=O)CCC(C)(C)C3)C(=O)O` (stereo not drawn) [Compound 40, 2-[(2-Hydroxy-7,7-dimethyl-4-oxo-5,6,7,8-tetrahydro-4H-9-thia-1,4a-diaza-fluorene-3-carbonyl)-amino]-propionic acid] showed a fold induction at 200 µM (erythropoietin) of 5 to 8.
`CC(C)(C)C1CCc2c(sc3nc(O)c(C(=O)NCC(=O)O)c(=O)n23)C1` (stereo not drawn) [Compound 13, [(7-tert-Butyl-2-hydroxy-4-oxo-5,6,7,8-tetrahydro-4H-9-thia-1,4a-diaza-fluorene-3-carbonyl)-amino]-acetic acid] showed a fold induction at 200 µM (erythropoietin) of under 2.
`CC1(C)CCc2c(sc3nc(O)c(C(=O)NCC(=O)O)c(=O)n23)C1` [Compound 34, [(2-Hydroxy-7,7-dimethyl-4-oxo-5,6,7,8-tetrahydro-4H-9-thia-1,4a-diaza-fluorene-3-carbonyl)-amino]-acetic acid] was tested, and the fold induction at 200 µM (adrenomedullin mRNA) was 5 to 8, the fold induction at 200 µM (VEGF) was 2 to 4 and the fold induction at 200 µM (erythropoietin) was over 16.
For `O=C(O)CNC(=O)c1c(O)nc2sc3c(n2c1=O)CCN(C(=O)c1ccc(F)cc1)C3` [Compound 16, {[7-(4-Fluoro-benzoyl)-2-hydroxy-4-oxo-5,6,7,8-tetrahydro-4H-9-thia-1,4a,7-triaza-fluorene-3-carbonyl]-amino}-acetic acid], the fold induction at 200 µM (erythropoietin) was 5 to 8.
With `Cc1ccc(S(=O)(=O)N2CCc3c(sc4nc(O)c(C(=O)NCC(=O)O)c(=O)n34)C2)cc1` [Compound 7, {[2-Hydroxy-4-oxo-7-(toluene-4-sulfonyl)-5,6,7,8-tetrahydro-4H-9-thia-1,4a,7-triaza-fluorene-3-carbonyl]-amino}-acetic acid] the fold induction at 200 µM (erythropoietin) was 2 to 4.
In the case of `CN(CC(=O)O)C(=O)c1c(O)nc2sc3c(n2c1=O)CCC(C)(C)C3` [Compound 61, [(2-Hydroxy-7,7-dimethyl-4-oxo-5,6,7,8-tetrahydro-4H-9-thia-1,4a-diaza-fluorene-3-carbonyl)-methyl-amino] -acetic acid], the fold induction at 200 µM (erythropoietin) is reported as under 2.
With `O=C(O)CNC(=O)c1c(O)nc2sc3c(n2c1=O)CCN(C(=O)OCc1ccccc1)C3` [Compound 26, 3-(Carboxymethyl-carbamoyl)-2-hydroxy-4-oxo-5,8-dihydro-4H,6H-9-thia-1,4a,7-triaza-fluorene-7-carboxylic acid benzyl ester] the fold induction at 200 µM (erythropoietin) was 9 to 16.
